Data published in US9307763B2, “Ligands for odor receptors and olfactory neurons” (The Regents of the University of California, priority 2010, dated 2016).

How the values were obtained:
Or82a = target: T1, Or82a (Drosophila melanogaster, UniProt P82986); conditions: single strong ligand of the training set; cited from earlier work
T1 sequence (P82986 1-385): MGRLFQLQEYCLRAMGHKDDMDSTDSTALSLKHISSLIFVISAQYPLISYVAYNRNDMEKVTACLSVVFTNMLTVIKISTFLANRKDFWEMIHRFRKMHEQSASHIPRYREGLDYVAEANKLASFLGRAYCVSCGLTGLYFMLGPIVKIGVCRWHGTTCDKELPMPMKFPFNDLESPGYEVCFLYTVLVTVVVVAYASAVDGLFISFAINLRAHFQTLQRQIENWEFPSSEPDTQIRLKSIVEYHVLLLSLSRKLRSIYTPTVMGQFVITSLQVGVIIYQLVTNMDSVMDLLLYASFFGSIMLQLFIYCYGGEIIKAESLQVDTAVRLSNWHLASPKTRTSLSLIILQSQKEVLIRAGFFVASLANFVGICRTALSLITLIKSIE
T1 sequence (Q9VNB5 1-486 partner): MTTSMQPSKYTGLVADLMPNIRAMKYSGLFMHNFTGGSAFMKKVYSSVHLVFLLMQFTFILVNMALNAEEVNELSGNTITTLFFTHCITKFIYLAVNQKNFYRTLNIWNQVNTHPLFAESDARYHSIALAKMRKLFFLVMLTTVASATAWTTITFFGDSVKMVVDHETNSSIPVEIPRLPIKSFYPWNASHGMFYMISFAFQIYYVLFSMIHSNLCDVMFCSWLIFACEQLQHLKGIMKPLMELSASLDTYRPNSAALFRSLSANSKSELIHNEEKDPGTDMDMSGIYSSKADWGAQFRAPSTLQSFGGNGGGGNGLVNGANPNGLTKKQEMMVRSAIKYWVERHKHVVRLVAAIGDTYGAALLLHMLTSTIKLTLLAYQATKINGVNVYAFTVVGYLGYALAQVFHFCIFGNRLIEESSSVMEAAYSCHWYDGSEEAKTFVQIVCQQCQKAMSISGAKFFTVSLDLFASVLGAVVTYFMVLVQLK

CO2 responsive neurons = conditions: […]; averaged across the top 2 responders of the 4 species; cited from earlier work
Or98a, ab7A = target: T2, Or98a, ab7A (Drosophila melanogaster, UniProt Q9VAZ3); assay: single-sensillum electrophysiology; type: in vivo; conditions: odorant at 10^-2
T2 construct: The 9 Ors tested are expressed in well-defined olfactory receptor neurons (ORNs) housed within the large and small basiconic sensilla; from tissue; host or cells: D. melanogaster antenna, ab7A olfactory receptor neuron (in vivo recording)
T2 sequence (Q9VAZ3 1-397): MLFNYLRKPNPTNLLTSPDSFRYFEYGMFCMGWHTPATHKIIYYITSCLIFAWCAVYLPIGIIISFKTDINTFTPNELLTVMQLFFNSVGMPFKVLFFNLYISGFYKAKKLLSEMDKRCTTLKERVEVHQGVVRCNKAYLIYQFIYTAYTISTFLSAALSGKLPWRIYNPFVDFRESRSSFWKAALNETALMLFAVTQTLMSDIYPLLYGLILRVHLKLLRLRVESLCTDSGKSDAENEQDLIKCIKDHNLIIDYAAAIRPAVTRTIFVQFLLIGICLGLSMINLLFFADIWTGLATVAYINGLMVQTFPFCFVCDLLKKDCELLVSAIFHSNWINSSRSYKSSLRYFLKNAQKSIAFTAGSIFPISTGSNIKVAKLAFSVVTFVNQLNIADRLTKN
T2 sequence (Q9VNB5 1-486 partner): T1 sequence (Q9VNB5 1-486 partner)
Procedure: The results of the in silico screen are provocative. However in order to verify whether these predictions were meaningful, functional evidence was obtained. In order to validate the success of the in silico predictions the responses of 9 Odor receptors using single-sensillum electrophysiology directly on the Drosophila melanogaster antenna were analyzed. For each Odor receptor several odorants were tested from the top 500 predicted hits. A sampling of ˜192 novel odorants were tested with ˜11-21 novel odorants tested for each receptor, which were scattered somewhat randomly within the top 500 predictions for each receptor, providing a relatively unbiased set of chemical structures.
To test identified compounds any number of biological assays can be used to measure ORN activity in the presence of a putative ligand/compounds. […] For the purpose of testing each of these volatile compounds the compounds were diluted to ˜10^−2 in paraffin oil or distilled water. The 9 Ors tested are expressed in well-defined olfactory receptor neurons (ORNs) housed within the large and small basiconic sensilla (ab1-ab7) on the antenna. A previously identified diagnostic panel of odorants was used to distinguish individual classes of sensilla (ab1-ab7) and therefore identified the sensilla that contained the target Or expressing ORN. […]

SMILES	activation of Or82a (Or82a)	Final Activity (CO2 responsive neurons)	activation of odor receptor (firing rate) (Or98a, ab7A) [spikes/sec]
CC(=O)OC/C=C(\C)CCC=C(C)C [geranyl acetate, reference compound]	activated strongly	0	
CC(=O)OCC=C(C)C [prenyl acetate]			> 250
